Laboratory results published in publication PMC8205030, “Methoxy and bromo scans on N-(5-methoxyphenyl) methoxybenzenesulphonamides reveal potent cytotoxic compounds, especially against the human breast adenocarcinoma MCF7 cell line” (Journal of Enzyme Inhibition and Medicinal Chemistry, 2021).
≈ marks a conversion by molar mass, not a printed value.

System: HT-29 (human colon carcinoma) cells
Assay: Cell growth assay (XTT), HT-29, alone or with verapamil
Format: cell-based
Details: not given
Experimental: The presence of mycoplasma was routinely checked with MycoAlert kit (Lonza-Cambrex) and only mycoplasma-free cells were used in the experiments. Tumour cell lines were kindly provided by Dr Faustino Mollinedo from Centro de Investigaciones Biológicas Margarita Salas, Madrid, Spain. To determine cell growth, cells in exponential growth phase were seeded (100 µL/well in 96-well plates) with appropriate cell concentration (1.5 × 10^4 cells/mL for MCF7, HeLa and HEK-293 and 3 × 10^4 cells/mL for HT-29) in complete DMEM or RPMI 1640 medium (see above) at 37 °C and 5% CO2 atmosphere. After 24 h incubation, to allow cells to attach to the plates, all compounds were added at 1 µM concentration (10 µL/well in 96-well plates) and the effect on the proliferation was evaluated 72 h post-treatment. […] Nonlinear curves fitting the experimental data were carried out for each compound. […] A freshly prepared mixture solution of XTT labelling reagent with 0.02% (v/v) PMS (N-methyl-dibenzopyrazine methyl sulfate) electron coupling reagent was added to cells (50 µL/well in 96-well plates, the total volume of 160 µL/well) and were incubated during the corresponding time according to each cell line (4 h for MCF7 and HeLa and 6 h for HT-29 and HEK-293) in a humidified atmosphere (37 °C, 5% CO2). The absorbance of the formazan product generated was measured at a test wavelength of 450 nm using a multi-well plate reader (Ultra Evolution, Tecan, Männedorf, Suiza). Compounds were dissolved in DMSO and the final solvent concentrations never exceeded 0.5% (v/v). The control wells included treated cells with 0.5% (v/v) DMSO and the positive control. 10 µM verapamil was included as a control for the HT-29 cell line. Measurements were performed in triplicate, and each experiment was repeated three times.
For COc1ccc(/C=C\c2cc(OC)c(OC)c(OC)c2)cc1O [Combretastatin A-4, combretastatin A-4, reference compound], the “Difference of IC50 values HeLa vs HT-29” value was greater than 100 fold.

Same assay, conditions: 72 h, in the presence of Pgp/MDR1 inhibitor verapamil (10 µM); read-out: Antiproliferative activity IC50 HT-29 Verap
In the case of COc1ccc(/C=C\c2cc(OC)c(OC)c(OC)c2)cc1O [Combretastatin A-4, combretastatin A-4, reference compound], the IC50 is reported as 0.327 µM. In the case of CCN(c1cc(OC)c(OC)cc1Br)S(=O)(=O)c1ccc(OC)cc1 [Compound 15, N-(2-bromo-4,5-dimethoxyphenyl)-N-ethyl-4-methoxybenzenesulphonamide], the IC50 is reported as 0.5 µM. For CCN(c1cc(OC)c(OC)cc1OC)S(=O)(=O)c1ccc(OC)cc1 [Compound 34, N-ethyl-4-methoxy-N-(2,4,5-trimethoxyphenyl)benzenesulphonamide], the IC50 was 1.07 µM.

Same assay, conditions: Homo sapiens, HT-29; 72 h drug exposure, XTT; read-out: Antiproliferative activity IC50 HT-29
For COc1ccc(/C=C\c2cc(OC)c(OC)c(OC)c2)cc1O [Combretastatin A-4, combretastatin A-4, reference compound], the IC50 was 0.305 µM. For CCN(c1cc(OC)c(OC)cc1Br)S(=O)(=O)c1ccc(OC)cc1 [Compound 15, N-(2-bromo-4,5-dimethoxyphenyl)-N-ethyl-4-methoxybenzenesulphonamide], the IC50 was 0.365 µM. With CCN(c1cc(OC)c(OC)cc1OC)S(=O)(=O)c1ccc(OC)cc1 [Compound 34, N-ethyl-4-methoxy-N-(2,4,5-trimethoxyphenyl)benzenesulphonamide] the IC50 was 0.5 µM.

Biological target: T1, microtubular protein isolated from calf brain (Bos taurus, UniProt P81947+Q6B856)
T1 construct: isolated from calf brain according to the modified Shelanski method; from tissue; host or cells: calf brain
T1 sequence (Q6B856 whole entry): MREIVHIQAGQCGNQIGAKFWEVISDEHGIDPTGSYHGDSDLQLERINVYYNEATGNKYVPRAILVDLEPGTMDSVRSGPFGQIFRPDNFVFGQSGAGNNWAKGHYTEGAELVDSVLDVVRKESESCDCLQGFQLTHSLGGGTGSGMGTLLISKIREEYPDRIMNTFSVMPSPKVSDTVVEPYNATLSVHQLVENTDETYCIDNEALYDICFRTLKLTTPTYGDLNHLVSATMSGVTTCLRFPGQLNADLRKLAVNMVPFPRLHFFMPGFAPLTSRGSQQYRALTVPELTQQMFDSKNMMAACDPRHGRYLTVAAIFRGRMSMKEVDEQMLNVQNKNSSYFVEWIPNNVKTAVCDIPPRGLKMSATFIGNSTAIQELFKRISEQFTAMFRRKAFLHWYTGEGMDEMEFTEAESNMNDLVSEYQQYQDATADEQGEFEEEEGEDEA
T1 sequence (P81947 whole entry): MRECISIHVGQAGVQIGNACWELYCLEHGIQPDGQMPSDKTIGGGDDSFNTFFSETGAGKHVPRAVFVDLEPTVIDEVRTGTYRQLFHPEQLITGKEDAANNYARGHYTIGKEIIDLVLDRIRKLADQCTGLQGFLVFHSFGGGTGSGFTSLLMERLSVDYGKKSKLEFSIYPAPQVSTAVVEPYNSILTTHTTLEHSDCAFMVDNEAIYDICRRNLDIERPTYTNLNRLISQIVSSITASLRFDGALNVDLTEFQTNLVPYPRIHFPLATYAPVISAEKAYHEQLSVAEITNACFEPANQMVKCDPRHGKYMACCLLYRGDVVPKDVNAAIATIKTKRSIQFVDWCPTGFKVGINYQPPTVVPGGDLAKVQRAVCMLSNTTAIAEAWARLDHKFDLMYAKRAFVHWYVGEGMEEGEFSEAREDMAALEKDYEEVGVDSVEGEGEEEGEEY
Assay: Inhibition of tubulin polymerisation (turbidity)
Format: biochemical
Details: 10 µM compound, 1.5 mg/mL microtubular protein
Experimental: Microtubular protein was isolated from calf brain according to the modified Shelanski method[23]^,[24] by two cycles of temperature-dependent assembly/disassembly and stored at −80 °C. Before each use, protein concentration is determined by Bradford method[25] taking BSA as standard. Tubulin polymerisation was monitored using a Helios α spectrophotometer by measuring the increase in turbidity at 450 nm, caused by a shift from 4 °C to 37 °C, which allows the in vitro microtubular protein to depolymerise and to polymerise, respectively. The assay was carried out in quartz cuvettes containing 1.5 mg/mL microtubular protein and the ligand (except for control cuvette with only DMSO at the same concentration) in a mixture of 0.1 M MES buffer, 1 mM EGTA, 1 mM MgCl2, 1 mM β-ME, and 1.5 mM GTP at pH 6.7 (final volume 500 µL). Cuvettes were preincubated at 20 °C for 30 min, to allow ligand binding to tubulin, and subsequently cooled on ice for 10 min. Then, the experiment starts at 4 °C to establish the initial baseline. The assembly process was initiated by a temperature shift to 37 °C and the turbidity produced by tubulin polymerisation can be measured by an absorbance increase. After reaching a stable plateau, the temperature was switched back to 4 °C to return to the initial absorption values (to confirm the reversible nature of the monitored process and to determine whether or not the microtubular protein has stabilized). The difference in amplitude between the stable plateau and the initial baseline of the curves was taken as the degree of tubulin polymerisation for each experiment. […] All compounds were tested at 10 µM concentration. IC50 values were calculated for compounds that inhibit tubulin polymerisation more than 50% at 10 µM. […] All the measurements were carried out in at least two independent experiments using microtubular protein from different preparations.
With COc1ccc(/C=C\c2cc(OC)c(OC)c(OC)c2)cc1O [Combretastatin A-4, combretastatin A-4, reference compound] the “TPI % 10 µM” value was 100%. In the case of CCN(c1cc(OC)c(OC)cc1Br)S(=O)(=O)c1ccc(OC)cc1 [Compound 15, N-(2-bromo-4,5-dimethoxyphenyl)-N-ethyl-4-methoxybenzenesulphonamide], the “TPI % 10 µM” value is reported as 24%. For CCN(c1cc(OC)c(OC)cc1OC)S(=O)(=O)c1ccc(OC)cc1 [Compound 34, N-ethyl-4-methoxy-N-(2,4,5-trimethoxyphenyl)benzenesulphonamide], the “TPI % 10 µM” value was 19%.

Same assay, conditions: in vitro tubulin polymerisation inhibition; read-out: TPI IC50
Work on CCN(c1cc(OC)c(OC)cc1Br)S(=O)(=O)c1ccc(OC)cc1 [Compound 15, N-(2-bromo-4,5-dimethoxyphenyl)-N-ethyl-4-methoxybenzenesulphonamide] yielded an IC50 greater than 10 µM. Work on CCN(c1cc(OC)c(OC)cc1OC)S(=O)(=O)c1ccc(OC)cc1 [Compound 34, N-ethyl-4-methoxy-N-(2,4,5-trimethoxyphenyl)benzenesulphonamide] yielded an IC50 greater than 10 µM.

System: not listed separately
Assay: Aqueous solubility (saturation shake-flask, UV)
Format: physicochemical
Details: aqueous buffer, thermodynamic from solid, pH 7.0 phosphate buffer, room temperature
Experimental: The aqueous solubility was determined in a Helios-α UV-320 Spectrophotometer Thermo-Spectronic, Thermo Fischer Scientific, Waltham, MA, USA) using an approach based on the saturation shake-flask method. 1–2 mg of each selected compound was suspended in 300 µL pH 7.0 buffer and stirred for 48 h at room temperature. The resulting mixture was filtered through a […] filter to discard the insoluble residues. A scan between 270 and 400 nm for the tested compound was performed and three wavelengths of maximum absorbance were selected. Calibration curves were performed at these wavelengths and the concentration in the supernatant was measured by UV absorbance. The final value was given as the average of the three measurements.
In the case of CCN(c1cc(OC)c(OC)cc1Br)S(=O)(=O)c1ccc(OC)cc1 [Compound 15, N-(2-bromo-4,5-dimethoxyphenyl)-N-ethyl-4-methoxybenzenesulphonamide], the solubility at 48 h is reported as 26 µg/mL (≈ 60.4 µM). Compound CCN(c1cc(OC)c(OC)cc1OC)S(=O)(=O)c1ccc(OC)cc1 [Compound 34, N-ethyl-4-methoxy-N-(2,4,5-trimethoxyphenyl)benzenesulphonamide] has a solubility at 48 h of 122 µg/mL (≈ 320 µM).

Same assay, conditions: pH 7.0 phosphate buffer, room temperature, 48 h
COc1ccc(/C=C\c2cc(OC)c(OC)c(OC)c2)cc1O [Combretastatin A-4, combretastatin A-4, reference compound] gave an Aqueous solubility of 1 µg/mL.

System: HeLa (human cervical carcinoma) cells
Assay: Cell growth assay (XTT), HeLa
Format: cell-based
Details: 72 h drug exposure, read-out: Antiproliferative activity IC50 HeLa
Experimental: (§1) The presence of mycoplasma was routinely checked with MycoAlert kit (Lonza-Cambrex) and only mycoplasma-free cells were used in the experiments. Tumour cell lines were kindly provided by Dr Faustino Mollinedo from Centro de Investigaciones Biológicas Margarita Salas, Madrid, Spain. To determine cell growth, cells in exponential growth phase were seeded (100 µL/well in 96-well plates) with appropriate cell concentration (1.5 × 10^4 cells/mL for MCF7, HeLa and HEK-293 and 3 × 10^4 cells/mL for HT-29) in complete DMEM or RPMI 1640 medium (see above) at 37 °C and 5% CO2 atmosphere. After 24 h incubation, to allow cells to attach to the plates, all compounds were added at 1 µM concentration (10 µL/well in 96-well plates) and the effect on the proliferation was evaluated 72 h post-treatment. Compounds showing antiproliferative effects at tested concentration were selected for IC50 calculation (50% inhibitory concentration compared to the untreated controls) from 10^−5 to 10^−10 M concentration. Nonlinear curves fitting the experimental data were carried out for each compound. […] A freshly prepared mixture solution of XTT labelling reagent with 0.02% (v/v) PMS (N-methyl-dibenzopyrazine methyl sulfate) electron coupling reagent was added to cells (50 µL/well in 96-well plates, the total volume of 160 µL/well) and were incubated during the corresponding time according to each cell line (4 h for MCF7 and HeLa and 6 h for HT-29 and HEK-293) in a humidified atmosphere (37 °C, 5% CO2). The absorbance of the formazan product generated was measured at a test wavelength of 450 nm using a multi-well plate reader (Ultra Evolution, Tecan, Männedorf, Suiza). Compounds were dissolved in DMSO and the final solvent concentrations never exceeded 0.5% (v/v). The control wells included treated cells with 0.5% (v/v) DMSO and the positive control. 10 µM verapamil was included as a control for the HT-29 cell line. Measurements were performed in triplicate, and each experiment was repeated three times.
COc1ccc(/C=C\c2cc(OC)c(OC)c(OC)c2)cc1O [Combretastatin A-4, combretastatin A-4, reference compound] showed an IC50 of 0.002 µM. Compound CCN(c1cc(OC)c(OC)cc1Br)S(=O)(=O)c1ccc(OC)cc1 [Compound 15, N-(2-bromo-4,5-dimethoxyphenyl)-N-ethyl-4-methoxybenzenesulphonamide] has an IC50 of 0.313 µM. With CCN(c1cc(OC)c(OC)cc1OC)S(=O)(=O)c1ccc(OC)cc1 [Compound 34, N-ethyl-4-methoxy-N-(2,4,5-trimethoxyphenyl)benzenesulphonamide] the IC50 was 0.313 µM.

System: MCF7 (human breast carcinoma) cells
Assay: Cell growth assay (XTT), MCF7
Format: cell-based
Details: Homo sapiens, MCF7; 72 h drug exposure, XTT; read-out: Antiproliferative activity IC50 MCF7
Experimental: as §1
Compound COc1ccc(/C=C\c2cc(OC)c(OC)c(OC)c2)cc1O [Combretastatin A-4, combretastatin A-4, reference compound] has an IC50 of 0.001 µM. With CCN(c1cc(OC)c(OC)cc1Br)S(=O)(=O)c1ccc(OC)cc1 [Compound 15, N-(2-bromo-4,5-dimethoxyphenyl)-N-ethyl-4-methoxybenzenesulphonamide] the IC50 was 0.66 µM. For CCN(c1cc(OC)c(OC)cc1OC)S(=O)(=O)c1ccc(OC)cc1 [Compound 34, N-ethyl-4-methoxy-N-(2,4,5-trimethoxyphenyl)benzenesulphonamide], the IC50 was 0.715 µM.

System: not given
Assay: not given
Details: not given
With CCN(c1cc(OC)c(OC)cc1Br)S(=O)(=O)c1ccc(OC)cc1 [Compound 15, N-(2-bromo-4,5-dimethoxyphenyl)-N-ethyl-4-methoxybenzenesulphonamide] the melting point was 111 to 117 °C.
